# From ChEMBL document CHEMBL5236589, “Design and Structural Optimization of Orally Bioavailable SOS1 Inhibitors for the Treatment of KRAS-Driven Carcinoma” (J Med Chem, 2022)
# Experiments:
# [1] = Cmax in ICR mouse at 20 mg/kg, po by LC-MS/MS analysis; assay type: ADME, organism-based; design: dose 20 mg/kg, route po; settings: in vivo
# [2] = Inhibition of SOS1/KRAS G13D mutant protein-protein interaction in human DLD-1 cells assessed as ERK1/2 phosphorylation measured after 1 hr by homogeneous time-resolved fluorescence (HTRF) method; assay type: cell-based; settings: DLD-1, 1 h
# [3] = MRT in ICR mouse at 20 mg/kg, po by LC-MS/MS analysis; assay type: ADME, organism-based; settings: in vivo
# [4] = Half life in ICR mouse at 20 mg/kg, po by LC-MS/MS analysis; assay type: ADME, organism-based; settings: in vivo; for half-life: ICR
# [5] = Tmax in ICR mouse at 20 mg/kg, po by LC-MS/MS analysis; assay type: ADME, organism-based; settings: in vivo
# [6] = AUC in ICR mouse at 20 mg/kg, po by LC-MS/MS analysis; assay type: ADME, organism-based; design: dose 20 mg/kg, route po; settings: in vivo
# [7] = Elimination rate constant in ICR mouse at 20 mg/kg, po by LC-MS/MS analysis; assay type: ADME, organism-based; settings: in vivo; for k el: ICR
# SOS1-KRAS = SOS1-KRAS (Homo sapiens, UniProt Q07889); experiment: Inhibition of human recombinant SOS1 (residue 564-1049)/KRAS G12C mutant protein-protein interaction at incubated for 25 degC for 60 mins by homogeneous time-resolved fluorescence (HTRF) method
# SOS1-KRAS, sequence (Q07889 whole entry, looked up, stated change not applied): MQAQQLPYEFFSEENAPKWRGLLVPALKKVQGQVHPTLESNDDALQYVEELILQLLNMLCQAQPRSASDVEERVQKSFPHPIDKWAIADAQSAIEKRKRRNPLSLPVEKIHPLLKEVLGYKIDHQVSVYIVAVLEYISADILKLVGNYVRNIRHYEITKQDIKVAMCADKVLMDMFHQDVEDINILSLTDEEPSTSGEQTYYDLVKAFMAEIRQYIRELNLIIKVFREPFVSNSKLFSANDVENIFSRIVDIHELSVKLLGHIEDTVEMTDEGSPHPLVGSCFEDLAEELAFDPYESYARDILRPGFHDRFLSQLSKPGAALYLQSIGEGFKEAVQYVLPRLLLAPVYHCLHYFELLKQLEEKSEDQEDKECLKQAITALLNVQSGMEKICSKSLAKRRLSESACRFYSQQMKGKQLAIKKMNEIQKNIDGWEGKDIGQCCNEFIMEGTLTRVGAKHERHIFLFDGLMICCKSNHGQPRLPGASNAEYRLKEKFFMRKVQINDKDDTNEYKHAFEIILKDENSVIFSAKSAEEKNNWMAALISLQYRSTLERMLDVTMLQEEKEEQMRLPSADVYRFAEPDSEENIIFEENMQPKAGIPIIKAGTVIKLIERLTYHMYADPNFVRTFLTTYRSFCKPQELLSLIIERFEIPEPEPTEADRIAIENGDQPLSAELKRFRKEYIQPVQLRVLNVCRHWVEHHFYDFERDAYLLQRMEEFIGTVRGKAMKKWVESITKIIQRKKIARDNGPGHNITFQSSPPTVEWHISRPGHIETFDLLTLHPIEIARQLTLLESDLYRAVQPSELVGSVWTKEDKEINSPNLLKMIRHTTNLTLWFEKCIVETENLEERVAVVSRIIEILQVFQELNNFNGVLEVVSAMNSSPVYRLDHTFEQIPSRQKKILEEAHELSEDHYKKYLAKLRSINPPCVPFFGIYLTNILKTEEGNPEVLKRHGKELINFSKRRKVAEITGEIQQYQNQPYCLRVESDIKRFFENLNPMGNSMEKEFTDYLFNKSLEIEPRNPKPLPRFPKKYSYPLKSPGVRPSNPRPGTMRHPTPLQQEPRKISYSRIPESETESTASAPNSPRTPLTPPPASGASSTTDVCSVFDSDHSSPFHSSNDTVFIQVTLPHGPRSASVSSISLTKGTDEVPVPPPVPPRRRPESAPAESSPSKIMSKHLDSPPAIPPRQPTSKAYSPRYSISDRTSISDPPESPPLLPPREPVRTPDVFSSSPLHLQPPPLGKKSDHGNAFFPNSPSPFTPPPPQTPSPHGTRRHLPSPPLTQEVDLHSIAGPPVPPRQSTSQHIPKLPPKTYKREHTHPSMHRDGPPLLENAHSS
# MIA PaCa-2 = experiment: In vivo antitumor activity against human MIA PaCa-2 cells harboring KRAS G12C mutant xenografted in BALB/c mouse assessed as reduction in tumor volume at 50 mg/kg, po once a day measured for 16 days relative to control; assay type: functional; design: scale not given: the % may be the effect or the level left; settings: time 16 day
# [8] = Toxicity in BALB/c mouse xenografted with human MIA PaCa-2 cells harboring KRAS G12C mutant assessed as change in body weight at 50 mg/kg, po once a day measured for 16 days; assay type: organism-based; settings: in vivo, 384 h, time 16 day
# [9] = Toxicity in BALB/c mouse xenografted with human MIA PaCa-2 cells harboring KRAS G12C mutant assessed as mortality at 50 mg/kg, po once a day measured for 16 days; assay type: organism-based; settings: in vivo, 384 h, time 16 day
# [10] = Elimination rate constant in ICR mouse at 10 mg/kg, po by LC-MS/MS analysis; assay type: ADME, organism-based; settings: in vivo
# [11] = Half life in ICR mouse at 10 mg/kg, po by LC-MS/MS analysis; assay type: ADME, organism-based; settings: in vivo
# [12] = MRT in ICR mouse at 10 mg/kg, po by LC-MS/MS analysis; assay type: ADME, organism-based; settings: in vivo
# [13] = Cmax in ICR mouse at 10 mg/kg, po by LC-MS/MS analysis; assay type: ADME, organism-based; design: dose 10 mg/kg, route po; settings: in vivo
# [14] = AUC in ICR mouse at 10 mg/kg, po by LC-MS/MS analysis; assay type: ADME, organism-based; design: dose 10 mg/kg, route po; settings: in vivo
# [15] = Tmax in ICR mouse at 10 mg/kg, po by LC-MS/MS analysis; assay type: ADME, organism-based; settings: in vivo
compound,measurement,setting,value
Cc1nc(N[C@H](C)c2cccc(C(F)F)c2F)c2cc3c(cc2n1)OC[C@H]1CN(C(=O)N2CCOCC2)CCN31,Cmax,[1],356 ng/mL
same,IC50,[2],9.7 nM
same,MRT,[3],2.14 h
same,half-life,[4],1.78 h
same,Tmax,[5],0.5 h
same,AUC,[6],872 ng·h/mL
same,k el,[7],0.0001 s⁻¹
Cc1nc(N[C@H](C)c2cc(N)cc(C(F)(F)F)c2)c2cc3c(cc2n1)OC[C@H]1CN(C)CCN31,IC50,[2],11 nM
same,IC50,SOS1-KRAS,7.3 nM
Cc1nc(N[C@H](C)c2cccc(C(F)F)c2F)c2cc3c(cc2n1)OC[C@H]1CN(C(=O)C2CCOCC2)CCN31,Cmax,[1],241 ng/mL
same,IC50,[2],18 nM
same,MRT,[3],2.46 h
same,half-life,[4],2.13 h
same,Tmax,[5],0.91 h
same,AUC,[6],646 ng·h/mL
same,k el,[7],9.44e-05 s⁻¹
Cc1nc(N[C@H](C)c2cc(N)cc(C(F)(F)F)c2)c2cc3c(cc2n1)OC[C@H]1CN(C2COC2)CCN31,IC50,[2],45 nM
same,IC50,SOS1-KRAS,15.6 nM
Cc1nc(N[C@H](C)c2cccc(C(F)F)c2F)c2cc3c(cc2n1)OC[C@H]1CN(C2CCOCC2)CCN31,IC50,[2],57 nM
COCC(=O)N1CCN2c3cc4c(N[C@H](C)c5cccc(C(F)F)c5F)nc(C)nc4cc3OC[C@H]2C1,Cmax,[1],180 ng/mL
same,IC50,[2],10 nM
same,MRT,[3],3.43 h
same,half-life,[4],5.86 h
same,Tmax,[5],0.83 h
same,AUC,[6],860 ng·h/mL
same,k el,[7],3.06e-05 s⁻¹
Cc1nc(N[C@H](C)c2cccc(C(F)F)c2F)c2cc3c(cc2n1)OC[C@H]1CN(C(=O)NC2CC2)CCN31,Activity,MIA PaCa-2,47%
same,Cmax,[1],557 ng/mL
same,IC50,[2],8 nM
same,Activity,[8],Non-Toxic
same,MRT,[3],4.36 h
same,t1/2,"[4]; po, 20 mg/kg",12.6 h
same,Tmax,[5],6 h
same,AUC,[6],3490 ng·h/mL
same,Activity,[9],Non-Toxic
same,Kel,"[7]; po, 20 mg/kg",0.14 h⁻¹
COCCN1CCN2c3cc4c(N[C@H](C)c5cccc(C(F)F)c5F)nc(C)nc4cc3OC[C@H]2C1,IC50,[2],97 nM
Cc1nc(N[C@H](C)c2cccc(C(F)F)c2F)c2cc3c(cc2n1)OC[C@H]1CN(C(=O)C(C)(C)C)CCN31,IC50,[2],25 nM
Cc1nc(N[C@H](C)c2cccc(C(F)F)c2F)c2cc3c(cc2n1)OC[C@H]1CN(CC(=O)N(C)C)CCN31,IC50,[2],295 nM
Cc1nc(N[C@H](C)c2cccc(C(F)F)c2F)c2cc3c(cc2n1)OC[C@H]1CN(C(=O)[C@@H]2CCCN2C)CCN31,IC50,[2],104 nM
Cc1nc(N[C@H](C)c2cccc(C(F)F)c2F)c2cc3c(cc2n1)OC[C@H]1CN(C(=O)c2ccn[nH]2)CCN31,IC50,[2],376 nM
CC(=O)N1CCN2c3cc4c(N[C@H](C)c5cccc(C(F)(F)C(C)(C)O)c5F)nc(C)nc4cc3OC[C@H]2C1,IC50,[2],10 nM
same,k el,[10],3.89e-05 s⁻¹
same,half-life,[11],3.24 h
same,MRT,[12],1 h
same,Cmax,[13],5.03 ng/mL
same,AUC,[14],7.7 ng·h/mL
same,IC50,SOS1-KRAS,12.7 nM
same,Tmax,[15],0.625 h
Cc1nc(N[C@H](C)c2cc(N)cc(C(F)(F)F)c2)c2cc3c(cc2n1)OC[C@H]1CN(C2CCOCC2)CCN31,IC50,[2],48 nM
same,IC50,SOS1-KRAS,18 nM
COCC1(C(=O)N2CCN3c4cc5c(N[C@H](C)c6cccc(C(F)F)c6F)nc(C)nc5cc4OC[C@H]3C2)CC1,Cmax,[1],161 ng/mL
same,IC50,[2],0.9 nM
same,MRT,[3],2.62 h
same,half-life,[4],2.28 h
same,Tmax,[5],0.25 h
same,AUC,[6],398 ng·h/mL
same,k el,[7],8.33e-05 s⁻¹
CC(=O)N1CCN2c3cc4c(N[C@H](C)c5cccc(C(F)F)c5F)nc(C)nc4cc3OCC2C1 (stereo partly drawn),IC50,[2],19 nM
same,IC50,SOS1-KRAS,8.8 nM
Cc1nc(N[C@H](C)c2cccc(C(F)F)c2F)c2cc3c(cc2n1)OC[C@H]1CN(C2CN(C)C2)CCN31,IC50,[2],166 nM
Cc1nc(N[C@H](C)c2cccc(C(F)F)c2F)c2cc3c(cc2n1)OC[C@H]1CN(C(=O)C2CCN(C)CC2)CCN31,IC50,[2],98 nM
COC(=O)N1CCN2c3cc4c(N[C@H](C)c5cccc(C(F)F)c5F)nc(C)nc4cc3OC[C@H]2C1,IC50,[2],22 nM
Cc1nc(N[C@H](C)c2cccc(C(F)F)c2F)c2cc3c(cc2n1)OC[C@H]1CN(c2ncc(F)cn2)CCN31,IC50,[2],99 nM
CC(=O)N1CCOc2cc3nc(C)nc(N[C@H](C)c4cc(N)cc(C(F)(F)F)c4)c3cc21,IC50,[2],780 nM
same,IC50,SOS1-KRAS,122 nM
CC(=O)N1CCN2c3cc4c(N[C@H](C)c5cccc(C(F)F)c5F)nc(C)nc4cc3OC[C@@H]2C1,IC50,[2],38 nM
same,IC50,SOS1-KRAS,13.8 nM
